Here are results for 1 compound from patent US10752591B2, “18-20 member bi-polycyclic compounds” (Haro Pharmaceutical Inc., priority 2014, dated 2020).

Data set [1] has as its system C2Cl2 cells. In words: Q-RT PCR of myofiber-degradation associated genes in long term C2Cl2 cultures. It counts as cell-based. The following applies: day 10, normalized for RPLP0. The procedure:
Quantitative RT-PCR was performed on RNA prepared from cell treated as in Example 9. At day 10 of the experiment, cells were rinsed in HBSS (without calcium or magnesium) and RNA was prepared using FastLane Cell cDNA Kit (Qiagen). Quantitative PCR was performed using Eppendorf and SYBR amplification mix (Sigma-Aldrich) using the gene specific primer combination given in Table 3. Data were normalized for ribosomal housekeeping gene RPLP0

Data set [2] relates to C2Cl2 cells. Briefly: myoblast fusion in long term C2Cl2 cultures (MHC immunocytochemistry). Format: cell-based. The procedure: The effect of compounds on myoblast fusion was examined in C2Cl2 cells maintained in RPMI media supplemented with 2% horse serum. C2Cl2 myoblastic cells where purchased from the American Type Culture Collection (ATCC) and maintained undifferentiated in RPMI media (Corning) supplemented with 2 mM L-Alanine-L-Glutamine (ATCC) and 1 mM pyruvate (Corning). Undifferentiated cells where maintained below 70% confluence. For long term cultures and compound treatment, cells where plated at high density CellBIND Culture Dishes (corning 3294, 3296, 3337) and in RPMI supplemented with 2% Horse Serum (Gibco) and 2 mM L-Alanine-L-Glutamine (ATCC) and 1 mM pyruvate (Corning). Compounds were dissolved in DMSO at 1000 time the final concentration and diluted 1-in-1000 in the media covering the cells. Media and compounds were changed daily. For immunocytochemistry, cells were fixed in 2% PFA in HBSS for 10 minutes and left in HBSS at 4° under humidified atmosphere and processed for immunocytochemistry. For myosin heavy chain detection (MHC), cells were first incubated in 100 ul-1 ml 0.15 M Glycine in DPBS for 10 minutes, rinse with DPBS. 100 ul-1 ml 0.5% Triton-X in DPBS was added for 10 minutes, rinsed with DPBS, and followed by incubation with 100 ul blocking agent (10% goat serum in DPBS) for 30 min at room temperature. MF20 primary antibody in 10% goat serum in DPBS was added at 1/60 dilution for 30 min at room temperature and rinsed three times with 100 ul DPBS. IgG2b goat anti mouse secondary antibody (Jackson Immuno-Research) was added at 1:1000 in 10% goat serum in DPBS for exactly 30 min at room temperature then rinsed 3 times with 100 ul DPBS. A final rinse in H2O was performed and cells were covered with two drops of Elvanol and cover gently with cover slip and allowed to dry in the dark for 24-48 hours.

Data set [3] concerns C2Cl2 myoblasts. In words: myotube fusion and degeneration in differentiated C2Cl2 cells left in exhausted media. Format: cell-based. The following applies: 200 nM pre-treatment. The procedure: C2Cl2 myoblasts were seeded at 100,000 in 30 mm plate in growth medium (Phenol red-free RMPI containing 10% FBS, Sodium pyruvate and Ala-Glu), and “pre-treated” with DMSO or 200 nM of compounds 13 or 17. At confluence cells were shifted to differentiation media (high glucose DMEM, +0.2% HS+1× Insulin/Transferrin/Selenium (Life Tech 41400-045)+Glutamine, without Pyruvate). Fully differentiated C2Cl2-derived myotubes were left in culture without media renewal for 8 days followed by media renewal and microscopic examination.

The nature of data set [4]: mouse pharmacokinetics. Format: in vivo. The note with it: mice. The procedure:
Mouse pharmacokinetics studies were conducted in female athymic nude or male C57/B6 mice (n=3). Due to its very poor aqueous solubility, compound 17 was formulated in 66% PEG-400/33% H2O-1% Tween-80. In contrast compound 13 was formulated in 66% PEG-400/33% H2O. Compounds were administered PO (30 mg/kg) or IV (5 mg/kg), and plasma concentrations were measured by UV/HPLC.

The nature of data set [5]: aqueous solubility. It counts as physicochemical.
Data set [6] relates to RXR. In words: RXR-mediated transcription, RXRE luciferase reporter in MCF7 cells. Format: cell-based. From the text: The effect of various compounds of the invention on RAR-mediated transcription in MCF7 breast cancer cells was examined by measuring their effect on the transcription of a luciferase reporter gene under the control of a TK promoter placed downstream of a RAR response element. In addition, the effect of the compounds on the closely related RXR-mediated transcription was examined by measuring their effect on the transcription of a luciferase reporter gene under the control of a TK promoter placed downstream of a RXR response element.
Typically, 10,000 cells were plated in 96 wells plates in phenol red-free RPMI medium supplemented with 10% charcoal-stripped Fetal Bovine Serum. After 24 hours, cells were transfected with 0.1 μg of luciferase reporter plasmid and 0.01 μg of a reporter plasmid expressing renilla luciferase (RLuc) gene under the control of a SV40 promoter, using Fugene 6 transfection reagent (0.5 μl/well Promega Corporation). Cells were treated in triplicate with compounds or vehicle (DMSO) for 24 hours. Luciferase and renilla luciferase activities were measured using Dual-Glo reagent (Promega Corporation). Luciferase activity was normalized in each well for renilla activity.
A general note: A reporter such as luciferase makes a cellular process visible.

Where [7] appears, read: mouse, plasma, PO (30 mg/kg) or IV (5 mg/kg), route per parameter not stated.

SMILES strings stand for the structures.

`CC1(C)CCC(C)(C)c2cc(-c3ccc4cc(C(=O)NO)ccc4c3)ccc21` [Compound 17]: in data set [1], the “expression of Atrogin” value is reported as “downregulates” and the expression of myogenin entry is on record as “downregulates”. Further, the “myotubes' length and diameter versus DMSO” value in data set [2] (300 nM) is “longer and larger”. The “average nuclei per cell of polynucleated myotubes” value in data set [2] (300 nM, 10 days) was 5-10 nuclei per cell. Besides, the “fusion of single cells into multinucleated C2Cl2 myotubes” value in data set [2] (long-term culture, suboptimal RPMI media with 2% horse serum) was “enhances the fusion”. Further, in data set [3], the “cellular fusion after 72 hours differentiation versus DMSO” value is “extensive cellular fusion” and the “myotube structural atrophy in exhausted media for over 8 days” value was “very little structural alteration”. In data set [4] (PO (30 mg/kg) and IV (5 mg/kg)), the F turned out to be 19.7%. In addition, in data set [4] (setting [7]), the AUC(0-inf) stood at 28.7 µM·h and the peak level (Cmax) was 2080 nM. In addition, the clearance in data set [4] (mouse, plasma, PO (30 mg/kg) or IV (5 mg/kg), route per parameter not stated, read-out: CLp) was determined as 10.2 mL/min/kg. For the same compound, in data set [4] (mouse, plasma, PO (30 mg/kg) or IV (5 mg/kg), route per parameter not stated, read-out: MRT), the MRT is 7.1 h. In addition, in data set [4] (mouse, plasma, PO (30 mg/kg) or IV (5 mg/kg), route per parameter not stated, read-out: Tmax), the Tmax came to 4.3 h. Besides, the Vd in data set [4] (mouse, plasma, PO (30 mg/kg) or IV (5 mg/kg), route per parameter not stated, read-out: Vd,ss) worked out at 4.6 L/kg. Also, in data set [5], the aqueous solubility result is on record as “very poor”. Moreover, in data set [6], the “transcriptional activation of RXR / RXRE-promoter” value is given as “none”.

As usually defined, the AUC(0-inf) is the area under the concentration-time curve extrapolated to infinity. A high value points to more exposure. By Cmax is commonly meant the highest concentration seen after dosing. By MRT is commonly meant a mean duration of stay, worked out from the concentration-time curve. As usually defined, the Tmax is the time at which the peak concentration occurs.
